Assay results as given in PubChem BioAssay (NCI).
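Each compound was tested at five concentrations against cells in 96-well plates for 48 hours. GI50 marks 50% less growth. TGI denotes the concentration required for complete inhibition of growth.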

Experiments:
Assay in all cases: DTP human tumour cell line panel, 48 h; in the data active means GI50 below about 0.43 µM; inactive means the rest
SF-539 CNS = test system: SF-539 CNS
SR leukemia = test system: SR leukemia
SK-OV-3 ovarian = test system: SK-OV-3 ovarian
HOP-62 NSCLC = test system: HOP-62 NSCLC
MDA-N = test system: MDA-N
MCF7 breast = test system: MCF7 breast
SF-268 CNS = test system: SF-268 CNS
HL-60(TB) leukemia = test system: HL-60(TB) leukemia
OVCAR-5 ovarian = test system: OVCAR-5 ovarian
UACC-257 melanoma = test system: UACC-257 melanoma
IGROV1 ovarian = test system: IGROV1 ovarian
OVCAR-4 ovarian = test system: OVCAR-4 ovarian
PC-3 prostate = test system: PC-3 prostate
OVCAR-8 ovarian = test system: OVCAR-8 ovarian
SN12C renal = test system: SN12C renal
786-0 renal = test system: 786-0 renal
DU-145 prostate = test system: DU-145 prostate
HCT-15 colon = test system: HCT-15 colon
SW-620 colon = test system: SW-620 colon
NCI-H23 lung = test system: NCI-H23 lung
EKVX NSCLC = test system: EKVX NSCLC
KM12 colon = test system: KM12 colon
SNB-75 CNS = test system: SNB-75 CNS
HT29 colon = test system: HT29 colon
NCI/ADR-RES ovarian = test system: NCI/ADR-RES ovarian
NCI-H226 lung = test system: NCI-H226 lung
BT-549 breast = test system: BT-549 breast
NCI-H522 lung = test system: NCI-H522 lung
ACHN renal = test system: ACHN renal

O=[N+]([O-])O.[Cu+2].[NH-]CC[NH-].[NH-]CC[NH-]
inactive: GI50 (SF-539 CNS) > 10 µM | GI50 (SR leukemia) > 10 µM | GI50 (SK-OV-3 ovarian) > 10 µM | GI50 (HOP-62 NSCLC) > 10 µM | GI50 (MDA-N) > 10 µM | GI50 (MCF7 breast) > 10 µM | GI50 (SF-268 CNS) > 10 µM | GI50 (HL-60(TB) leukemia) > 10 µM | GI50 (OVCAR-5 ovarian) > 10 µM | GI50 (UACC-257 melanoma) > 10 µM | GI50 (IGROV1 ovarian) > 10 µM | GI50 (OVCAR-4 ovarian) > 10 µM | GI50 (PC-3 prostate) > 10 µM | GI50 (OVCAR-8 ovarian) > 10 µM | GI50 (SN12C renal) > 10 µM | GI50 (786-0 renal) > 10 µM | GI50 (DU-145 prostate) > 10 µM | GI50 (HCT-15 colon) > 10 µM | GI50 (SW-620 colon) > 10 µM | GI50 (NCI-H23 lung) > 10 µM | GI50 (EKVX NSCLC) > 10 µM | GI50 (KM12 colon) > 10 µM | GI50 (SNB-75 CNS) > 10 µM | GI50 (HT29 colon) > 10 µM | GI50 (NCI/ADR-RES ovarian) > 10 µM | GI50 (NCI-H226 lung) > 10 µM | GI50 (BT-549 breast) > 10 µM | GI50 (NCI-H522 lung) > 10 µM | GI50 (ACHN renal) > 10 µM
> 10 µM: TGI (SF-539 CNS) | TGI (SR leukemia) | TGI (SK-OV-3 ovarian) | TGI (HOP-62 NSCLC) | TGI (MDA-N) | TGI (MCF7 breast) | TGI (SF-268 CNS) | TGI (HL-60(TB) leukemia) | TGI (OVCAR-5 ovarian) | TGI (UACC-257 melanoma) | TGI (IGROV1 ovarian) | TGI (OVCAR-4 ovarian) | TGI (PC-3 prostate) | TGI (OVCAR-8 ovarian) | TGI (SN12C renal) | TGI (786-0 renal) | TGI (DU-145 prostate) | TGI (HCT-15 colon) | TGI (SW-620 colon) | TGI (NCI-H23 lung) | TGI (EKVX NSCLC) | TGI (KM12 colon) | TGI (SNB-75 CNS) | TGI (HT29 colon) | TGI (NCI/ADR-RES ovarian) | TGI (NCI-H226 lung) | TGI (BT-549 breast) | TGI (NCI-H522 lung) | TGI (ACHN renal)
